# Reference: ChEMBL document CHEMBL4725268, “Anticonvulsant and analgesic in neuropathic pain activity in a group of new aminoalkanol derivatives” (Bioorg Med Chem Lett, 2020)
# Activity calls are given as the source filed them.
# Columns and labels:
# Mus musculus [1] = assay: Anticonvulsant activity in ip dosed albino mouse assessed as protection against 50 mA current-induced seizure by maximal electroshock seizure test; format: functional
# [2] = Toxicity in ip dosed mouse assessed as motor impairment by rotarod test; format: organism-based; conditions: in vivo
# [3] = Protection index, ratio of TD50 for toxicity in ip dosed mouse to ED50 for anticonvulsant activity in ip dosed mouse; format: organism-based; conditions: in vivo, read-out: PI
# Mus musculus [4] = assay: Anticonvulsant activity in ip dosed mouse assessed as protection against current-induced seizure by maximal electroshock seizure test; format: functional
# [5] = Genotoxicity in Salmonella typhimurium TA100 assessed as mutagenic index at 500 ug by AMES test; format: toxicity, Salmonella enterica subsp. enterica serovar Typhimurium; conditions: in vivo; dose 500 µg
# [6] = Genotoxicity in Salmonella typhimurium TA100 assessed as number of revertant at 75 ug by AMES test (reference value: 64.3 to 130.7); format: toxicity, Salmonella enterica subsp. enterica serovar Typhimurium; conditions: in vivo; dose 75 µg
# [7] = Genotoxicity in Salmonella typhimurium TA98 assessed as mutagenic index at 750 ug by AMES test; format: toxicity, Salmonella enterica subsp. enterica serovar Typhimurium; conditions: in vivo; dose 750 µg
# [8] = Drug metabolism in mouse microsome assessed as formation of monohydroxylated metabolite; format: ADME; conditions: microsomes
# [9] = Genotoxicity in Salmonella typhimurium TA98 assessed as number of revertant at 200 ug by AMES test (reference value: 8 to 8.3); format: toxicity, Salmonella enterica subsp. enterica serovar Typhimurium; conditions: in vivo; dose 200 µg
# [10] = Genotoxicity in Salmonella typhimurium TA98 assessed as mutagenic index at 75 ug by AMES test; format: toxicity, Salmonella enterica subsp. enterica serovar Typhimurium; conditions: in vivo; dose 75 µg
# in vitro [11] = conditions: mouse, microsomes
# Description: Metabolic stability in mouse microsome assessed as intrinsic clearance
# [12] = target: T1, 5-hydroxytryptamine receptor 1A (Homo sapiens) (UniProt P08908); assay: Binding affinity to 5-HT1A (unknown origin) at 10^-5 M; conditions: dose 1.0 10^-5M
# T1 sequence (whole entry): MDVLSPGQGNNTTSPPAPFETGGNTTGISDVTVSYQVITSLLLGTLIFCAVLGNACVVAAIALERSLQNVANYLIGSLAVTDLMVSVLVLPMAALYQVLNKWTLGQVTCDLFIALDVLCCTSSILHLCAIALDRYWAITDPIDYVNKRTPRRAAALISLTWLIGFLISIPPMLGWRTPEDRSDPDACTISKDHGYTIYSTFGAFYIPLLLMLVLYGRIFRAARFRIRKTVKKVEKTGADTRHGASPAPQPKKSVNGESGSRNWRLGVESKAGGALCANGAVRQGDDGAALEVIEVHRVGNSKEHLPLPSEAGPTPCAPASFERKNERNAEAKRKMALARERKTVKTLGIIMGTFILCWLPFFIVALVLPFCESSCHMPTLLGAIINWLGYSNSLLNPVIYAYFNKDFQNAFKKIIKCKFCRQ
# [13] = Genotoxicity in Salmonella typhimurium TA98 assessed as number of revertant at 10 ug by AMES test (reference value: 8 to 8.3); format: toxicity, Salmonella enterica subsp. enterica serovar Typhimurium; conditions: in vivo; dose 10 µg
# [14] = Genotoxicity in Salmonella typhimurium TA98 assessed as mutagenic index at 200 ug by AMES test; format: toxicity, Salmonella enterica subsp. enterica serovar Typhimurium; conditions: in vivo; dose 200 µg
# [15] = Genotoxicity in Salmonella typhimurium TA98 assessed as mutagenic index at 500 ug by AMES test; format: toxicity, Salmonella enterica subsp. enterica serovar Typhimurium; conditions: in vivo; dose 500 µg
# [16] = Genotoxicity in Salmonella typhimurium TA98 assessed as number of revertant at 500 ug by AMES test (reference value: 8 to 8.3); format: toxicity, Salmonella enterica subsp. enterica serovar Typhimurium; conditions: in vivo; dose 500 µg
# [17] = Genotoxicity in Salmonella typhimurium TA100 assessed as mutagenic index at 75 ug by AMES test; format: toxicity, Salmonella enterica subsp. enterica serovar Typhimurium; conditions: in vivo; dose 75 µg
# [18] = Genotoxicity in Salmonella typhimurium TA98 assessed as number of revertant at 75 ug by AMES test (reference value: 8 to 8.3); format: toxicity, Salmonella enterica subsp. enterica serovar Typhimurium; conditions: in vivo; dose 75 µg
# [19] = Genotoxicity in Salmonella typhimurium TA100 assessed as number of revertant at 500 ug by AMES test (reference value: 64.3 to 130.7); format: toxicity, Salmonella enterica subsp. enterica serovar Typhimurium; conditions: in vivo; dose 500 µg
# [20] = Genotoxicity in Salmonella typhimurium TA98 assessed as number of revertant at 750 ug by AMES test (reference value: 8 to 8.3); format: toxicity, Salmonella enterica subsp. enterica serovar Typhimurium; conditions: in vivo; dose 750 µg
# [21] = Genotoxicity in Salmonella typhimurium TA100 assessed as number of revertant at 200 ug by AMES test (reference value: 64.3 to 130.7); format: toxicity, Salmonella enterica subsp. enterica serovar Typhimurium; conditions: in vivo; dose 200 µg
# in vitro [22] = conditions: mouse, microsomes; remark: listed apart in the source
# Description: Metabolic stability in mouse microsome assessed as half life
# [23] = Genotoxicity in Salmonella typhimurium TA100 assessed as mutagenic index at 10 ug by AMES test; format: toxicity, Salmonella enterica subsp. enterica serovar Typhimurium; conditions: in vivo; dose 10 µg
# [24] = Genotoxicity in Salmonella typhimurium TA98 assessed as mutagenic index at 10 ug by AMES test; format: toxicity, Salmonella enterica subsp. enterica serovar Typhimurium; conditions: in vivo; dose 10 µg
# [25] = Genotoxicity in Salmonella typhimurium TA100 assessed as number of revertant at 10 ug by AMES test (reference value: 64.3 to 130.7); format: toxicity, Salmonella enterica subsp. enterica serovar Typhimurium; conditions: in vivo; dose 10 µg
# [26] = Genotoxicity in Salmonella typhimurium TA100 assessed as mutagenic index at 200 ug by AMES test; format: toxicity, Salmonella enterica subsp. enterica serovar Typhimurium; conditions: in vivo; dose 200 µg
# [27] = Toxicity in mouse assessed as lethality at 30 mg/kg, ip; format: organism-based; conditions: in vivo
# Clostridioides difficile = assay: Antimicrobial activity against clinical strain Clostridium difficile assessed as reduction in bacterial growth at 0.195 to 100 ug/ml by disk diffusion method; format: organism-based; conditions: in vivo, dose 0.195-100 µg/ml
# [28] = Antimicrobial activity against clinical strain Bifidobacterium assessed as reduction in bacterial growth at 0.195 to 100 ug/ml by disk diffusion method; conditions: dose 0.195-100 µg/ml
# Salmonella enterica = assay: Antimicrobial activity against Salmonella enterica ATCC 51957 assessed as reduction in bacterial growth at 0.195 to 100 ug/ml by serial dilution method; format: organism-based; conditions: in vivo, dose 0.195-100 µg/ml
# Mus musculus [29] = assay: Antiallodynic activity in mouse model of OXA-induced peripheral neuropathy assessed as mean latency time to nocifensive response at 18 mg/kg, ip administered after 3 hrs of OXA stimulation and measured after 1 hr by cold plate method (reference value: 59.76 +/- 0.16 sec); format: functional
# Enterococcus faecalis = assay: Antimicrobial activity against Enterococcus faecalis ATCC 29212 assessed as reduction in bacterial growth at 0.195 to 100 ug/ml by serial dilution method; format: organism-based; conditions: in vivo, dose 0.195-100 µg/ml
# Escherichia coli [30] = assay: Antimicrobial activity against Escherichia coli ATCC 25922 assessed as reduction in bacterial growth at 0.195 to 100 ug/ml by serial dilution method; format: organism-based; conditions: in vivo, dose 0.195-100 µg/ml
# Bacteroides fragilis = assay: Antimicrobial activity against Bacteroides fragilis ATCC 25285 assessed as reduction in bacterial growth at 0.195 to 100 ug/ml by disk diffusion method; format: organism-based; conditions: in vivo, dose 0.195-100 µg/ml
# Escherichia coli [31] = assay: Antimicrobial activity against Escherichia coli ATCC 35218 assessed as reduction in bacterial growth at 0.195 to 100 ug/ml by serial dilution method; format: organism-based; conditions: in vivo, dose 0.195-100 µg/ml
# Staphylococcus aureus [32] = assay: Antimicrobial activity against clinical strain Staphylococcus aureus assessed as reduction in bacterial growth at 0.195 to 100 ug/ml by serial dilution method; format: organism-based; conditions: in vivo, dose 0.195-100 µg/ml
# Mus musculus [33] = assay: Antiallodynic activity in mouse model of OXA-induced peripheral neuropathy assessed as mean paw withdrawal threshold at 18 mg/kg, ip administered after 7 days of OXA stimulation and measured after 1 hr by Von-frey method (reference value: 3.192 +/- 0.181 g); format: functional
# Hoylesella loescheii = assay: Antimicrobial activity against Prevotella loescheii ATCC 15930 assessed as reduction in bacterial growth at 0.195 to 100 ug/ml by disk diffusion method; format: organism-based, DSM 19665 = JCM 12249 = ATCC 15930; conditions: in vivo, dose 0.195-100 µg/ml
# Staphylococcus aureus [34] = assay: Antimicrobial activity against Staphylococcus aureus ATCC 25923 assessed as reduction in bacterial growth at 0.195 to 100 ug/ml by serial dilution method; format: organism-based; conditions: in vivo, dose 0.195-100 µg/ml
# Mus musculus [35] = assay: Antiallodynic activity in mouse model of OXA-induced peripheral neuropathy assessed as mean paw withdrawal threshold at 18 mg/kg, ip administered after 3 hrs of OXA stimulation and measured after 1 hr by Von-frey method (reference value: 3.144 +/- 0.169 g); format: functional
# [36] = target: T2, 5-hydroxytryptamine receptor 1A (Homo sapiens, UniProt P08908); assay: Binding affinity to 5-HT1A (unknown origin)
# T2 sequence (P08908 whole entry): T1 sequence (whole entry)
# [37] = Antioxidant activity assessed as DPPH radical scavenging activity at 125 to 1000 uM by microplate method; format: functional; conditions: dose microM 125-1000
# [38] = Toxicity in mouse assessed as lethality at 10 mg/kg, ip; format: organism-based; conditions: in vivo
# Mus musculus [39] = assay: Antiallodynic activity in mouse model of OXA-induced peripheral neuropathy assessed as mean latency time to nocifensive response at 18 mg/kg, ip administered after 7 days of OXA stimulation and measured after 1 hr by cold plate method (reference value: 57.64 +/- 1.267 sec); format: functional
smiles,measurement,setting,value
CC(C)NC[C@@H](O)COc1cccc2ccccc12 [DEXPROPRANOLOL],ED50,Mus musculus [1],16 mg/kg
CC[C@@H](CO)NCCOCCOc1ccc(C)cc1C.Cl,TD50,[2],94.4 mg/kg
same,selectivity ratio,[3],2.33
same,ED50,Mus musculus [4],40.5 mg/kg
O=C1NC(=O)C(c2ccccc2)(c2ccccc2)N1 [PHENYTOIN],selectivity ratio,[3],8.56
CC(C)NCC(O)COc1cccc2ccccc12 (racemic) [PROPRANOLOL],ED50,Mus musculus [1],1.2 mg/kg
Cc1cccc(C)c1OCCOCCNC1CCC(O)CC1.Cl (stereo not given),Activity_index,[5],3.8
same,Activity,[6],312.3
same,Activity_index,[7],0.4
same,Drug metabolism,[8],Metabolite_Detected
same,TD50,[2],132 mg/kg
same,Activity,[9],9.3
same,Activity_index,[10],1
same,selectivity ratio,[3],3.99
same,microsomal CLint,in vitro [11],19.8 µL/min/mg
same,Activity,[12],inactive
same,Activity,[13],8
same,Activity_index,[14],1.2
same,Activity_index,[15],0.8
same,Activity,[16],6.7
same,Activity_index,[17],4.3
same,Activity,[18],8.3
same,Activity,[19],274.3
same,Activity,[20],3
same,Activity,[21],55
same,half-life,in vitro [22],1.46 h
same,ED50,Mus musculus [4],33 mg/kg
same,Activity_index,[23],3.1
same,Activity_index,[24],1
same,Activity,[25],226.7
same,Activity_index,[26],0.8
Cc1cc(C)c(OCCCN2CCCC(O)C2)c(C)c1.Cl (racemic),Activity,[27],Non-Toxic
same,Drug metabolism,[8],Metabolite_Detected
same,Activity,Clostridioides difficile,Non-Toxic
same,Activity,[28],Non-Toxic
same,Activity,Salmonella enterica,Non-Toxic
same,Time,Mus musculus [29],18.18 s
same,TD50,[2],70.2 mg/kg
same,selectivity ratio,[3],3.86
same,Activity,Enterococcus faecalis,Non-Toxic
same,microsomal CLint,in vitro [11],44.5 µL/min/mg
same,Activity,Escherichia coli [30],Non-Toxic
same,Activity,Bacteroides fragilis,Non-Toxic
same,Activity,Escherichia coli [31],Non-Toxic
same,Activity,Staphylococcus aureus [32],Non-Toxic
same,Activity,Mus musculus [33],1.947 g
same,half-life,in vitro [22],0.648 h
same,ED50,Mus musculus [4],18.2 mg/kg
same,Activity,Hoylesella loescheii,Non-Toxic
same,Activity,Staphylococcus aureus [34],Non-Toxic
same,Activity,Mus musculus [35],1.958 g
same,Ki,[36],3.39 µM
same,Activity,[37],inactive
same,Activity,[38],Non-Toxic
same,Time,Mus musculus [39],10.65 s
